Consider one compound from ChEMBL document CHEMBL5154869, “Discovery of 4-((E)-3,5-dimethoxy-2-((E)-2-nitrovinyl)styryl)aniline derivatives as potent and orally active NLRP3 inflammasome inhibitors for colitis” (Eur J Med Chem, 2022).

Series [1] is described as follows: Cytotoxicity against human L02 cells assessed as reduction in cell viability incubated for 24 hrs by MTT assay. The class given is toxicity, cell-based.
For series [2], the target named is NACHT, LRR and PYD domains-containing protein 3 (Mus musculus) (UniProt Q8R4B8). As to the kind of experiment: Inhibition of NLRP3 inflammasome activation in LPS/nigericin-treated C57BL/6 mouse bone marrow-derived macrophages assessed as reduction in activated caspase 1(P20) level in culture supernatants preincubated for 3 hrs with LPS and for 30 mins with compound prior to nigericin addition and measured after 30 mins by Western blot analysis. The class given is cell-based. The settings on record: BMDM, dose 0.5-2 µM, time 60.0 min, DDE = dose-dependent effect. (In general: A western blot detects proteins with antibodies after separation by electrophoresis.)
NACHT, LRR and PYD domains-containing protein 3 (Mus musculus), sequence (Q8R4B8 whole entry, the tested form may be a part): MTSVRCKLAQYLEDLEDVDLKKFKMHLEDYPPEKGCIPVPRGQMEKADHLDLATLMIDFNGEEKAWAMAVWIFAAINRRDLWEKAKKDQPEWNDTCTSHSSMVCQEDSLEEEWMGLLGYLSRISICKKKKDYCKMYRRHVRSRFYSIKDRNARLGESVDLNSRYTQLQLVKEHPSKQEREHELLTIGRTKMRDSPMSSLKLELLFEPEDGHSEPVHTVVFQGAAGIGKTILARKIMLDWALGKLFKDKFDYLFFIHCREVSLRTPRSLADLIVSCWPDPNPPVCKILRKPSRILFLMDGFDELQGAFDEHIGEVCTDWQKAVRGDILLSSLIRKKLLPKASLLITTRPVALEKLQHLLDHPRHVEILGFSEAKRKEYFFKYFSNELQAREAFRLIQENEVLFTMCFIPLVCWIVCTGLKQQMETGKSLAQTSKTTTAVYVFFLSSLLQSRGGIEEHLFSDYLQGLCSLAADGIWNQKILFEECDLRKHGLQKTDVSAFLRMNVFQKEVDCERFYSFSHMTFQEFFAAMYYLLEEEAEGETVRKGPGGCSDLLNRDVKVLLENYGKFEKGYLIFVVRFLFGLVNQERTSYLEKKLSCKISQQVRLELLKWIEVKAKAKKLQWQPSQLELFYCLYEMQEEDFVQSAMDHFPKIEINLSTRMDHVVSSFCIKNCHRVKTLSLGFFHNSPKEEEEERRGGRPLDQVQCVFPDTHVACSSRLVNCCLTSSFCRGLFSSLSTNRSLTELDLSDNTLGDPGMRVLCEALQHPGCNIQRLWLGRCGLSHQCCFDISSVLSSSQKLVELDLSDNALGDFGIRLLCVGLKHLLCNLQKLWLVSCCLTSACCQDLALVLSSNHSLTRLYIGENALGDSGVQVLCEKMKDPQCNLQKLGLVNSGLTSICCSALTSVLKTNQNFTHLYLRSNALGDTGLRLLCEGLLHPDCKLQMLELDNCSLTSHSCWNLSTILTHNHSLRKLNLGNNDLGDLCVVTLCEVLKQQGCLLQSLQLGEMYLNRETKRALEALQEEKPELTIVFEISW

For series [3] the target is unchanged. Description: Inhibition of NLRP3 inflammasome activation in LPS/nigericin-treated C57BL/6 mouse bone marrow-derived macrophages assessed as inhibition of ASC oligomerization preincubated for 3 hrs with LPS and for 30 mins with compound prior to nigericin addition and measured after 30 mins by Western blot analysis. It is filed as cell-based. The settings on record: BMDM, dose 0.5-2 µM, time 60.0 min, DDE = dose-dependent effect.

For series [4] the target is unchanged. As to the kind of experiment: Inhibition of NLRP3 inflammasome activation in LPS/nigericin-treated C57BL/6 mouse bone marrow-derived macrophages assessed as reduction in ASC-NLRP3 protein-protein interaction at 2 to 4 uM preincubated for 3 hrs with LPS and for 30 mins with compound prior to nigericin addition and measured after 30 mins by immunoprecipitation method. It is filed as cell-based. The note with it: BMDM, dose 2-4 µM, time 60.0 min.

The target of series [5] is NACHT, LRR and PYD domains-containing protein 3 (Homo sapiens, UniProt Q96P20). Description: Binding affinity to GFP-fused NLRP3 (unknown origin) expressed in HEK293T cells by MST assay. It is filed as cell-based.
NACHT, LRR and PYD domains-containing protein 3, sequence (Q96P20 whole entry, the tested form may be a part): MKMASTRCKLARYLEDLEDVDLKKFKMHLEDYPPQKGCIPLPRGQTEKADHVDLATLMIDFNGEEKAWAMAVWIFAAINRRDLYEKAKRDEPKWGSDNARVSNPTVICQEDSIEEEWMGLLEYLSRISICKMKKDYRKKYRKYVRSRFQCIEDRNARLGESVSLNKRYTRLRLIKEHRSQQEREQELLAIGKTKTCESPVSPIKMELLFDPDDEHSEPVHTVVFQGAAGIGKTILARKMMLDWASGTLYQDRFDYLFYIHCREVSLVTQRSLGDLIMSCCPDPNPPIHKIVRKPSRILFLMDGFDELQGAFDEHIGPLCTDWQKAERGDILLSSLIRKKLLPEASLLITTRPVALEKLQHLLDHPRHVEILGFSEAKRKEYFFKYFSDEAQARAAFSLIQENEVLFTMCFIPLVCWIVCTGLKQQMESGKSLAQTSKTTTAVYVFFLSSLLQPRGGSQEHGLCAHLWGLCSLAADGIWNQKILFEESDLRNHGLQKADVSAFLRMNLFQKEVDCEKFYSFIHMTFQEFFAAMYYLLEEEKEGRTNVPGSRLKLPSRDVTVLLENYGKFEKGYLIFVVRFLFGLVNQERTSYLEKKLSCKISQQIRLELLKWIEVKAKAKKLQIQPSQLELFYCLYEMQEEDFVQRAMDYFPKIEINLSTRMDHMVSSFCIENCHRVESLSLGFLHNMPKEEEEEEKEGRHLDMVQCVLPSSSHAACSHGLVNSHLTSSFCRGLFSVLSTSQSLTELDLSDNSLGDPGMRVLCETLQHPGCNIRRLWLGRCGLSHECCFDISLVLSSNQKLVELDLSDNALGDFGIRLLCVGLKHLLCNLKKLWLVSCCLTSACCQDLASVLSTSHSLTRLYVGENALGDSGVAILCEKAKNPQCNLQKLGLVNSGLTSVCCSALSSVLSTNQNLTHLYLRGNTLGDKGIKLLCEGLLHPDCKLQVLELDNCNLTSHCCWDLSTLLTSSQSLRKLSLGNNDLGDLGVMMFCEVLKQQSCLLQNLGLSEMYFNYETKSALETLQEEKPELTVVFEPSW
The target of series [6] is NACHT, LRR and PYD domains-containing protein 3 (Mus musculus) (UniProt Q8R4B8). As to the kind of experiment: Inhibition of NLRP3 inflammasome activation in LPS/nigericin-treated C57BL/6 mouse bone marrow-derived macrophages assessed as reduction in cleaved IL-1 beta level in culture supernatants preincubated for 3 hrs with LPS and for 30 mins with compound prior to nigericin addition and measured after 30 mins by Western blot analysis. The class given is cell-based. The settings on record: BMDM, dose 0.5-2 µM, time 60.0 min, DDE = dose-dependent effect.

The target is the same in series [7]. As to the kind of experiment: Inhibition of NLRP3 inflammasome activation in LPS/MSU-treated C57BL/6 mouse bone marrow-derived macrophages assessed as reduction in activated caspase 1(P20) level in culture supernatants preincubated for 3 hrs with LPS and for 30 mins with compound prior to MSU addition and measured after 30 mins by Western blot analysis. It is filed as cell-based. The note with it: BMDM, time 60.0 min.

A short description of series [8]: Inhibition of LPS/nigericin-induced reactive oxygen species production in C57BL/6 mouse bone marrow-derived macrophages assessed as ROS level at 2 uM by DCFH-DA staining based flow cytometry (reference value: 33.51%). Also on record: scale not given: the % may be the effect or the level left. The class given is functional, BMDM.

The structures appear in SMILES notation. Active and inactive are the calls of the source. The calls are words filed in the database; no cut-off is given here. Some results are limits rather than exact numbers.

For orientation: IC50 means the point on the concentration scale where inhibition reaches its midpoint. One may read the Kd as the free concentration of one partner at which half of the binding sites on the other are occupied at equilibrium, for simple one-to-one binding.

In the case of `COc1cc(/C=C/c2ccc(NC(=O)c3ccco3)cc2)c(/C=C/[N+](=O)[O-])c(OC)c1`, the IC50 at 24 h in series [1] is over 100 µM. Besides, the inhibition result in series [2], in series [3] and in series [6] was “Dde” in each case. The inhibition result in series [4] and in series [7] was “Active” throughout. Further, in series [5], the Kd was 213 nM. The Activity in series [8] was 29.79%.
